Molecular target: T1, human 11β-HSD1 (Homo sapiens, UniProt P28845)
T1 construct: host or cells: microsome fraction
Assay: Enzymatic 11beta-HSD1 test (SPA-based detection)
Type: biochemical
Settings: human 11β-HSD1 microsome fraction, [1,2-3H]-cortisone, NADPH, 37° C. 1 hour
Method in brief: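 Human 11β-HSD1 microsomes (0.2 µg protein) converted [1,2-3H]-cortisone ([…]) for 1 h at 37 °C. The reaction buffer was HEPES/KCl/NaCl/MgCl2 with 0.25 mM NADPH, with compounds added in DMSO. The reaction was stopped with SPA beads, anti-cortisol monoclonal antibody and 0.01 mM SSR110887; after 1 h at room temperature, [3H]-cortisol was scintillation-counted.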

T1 sequence (P28845 whole entry): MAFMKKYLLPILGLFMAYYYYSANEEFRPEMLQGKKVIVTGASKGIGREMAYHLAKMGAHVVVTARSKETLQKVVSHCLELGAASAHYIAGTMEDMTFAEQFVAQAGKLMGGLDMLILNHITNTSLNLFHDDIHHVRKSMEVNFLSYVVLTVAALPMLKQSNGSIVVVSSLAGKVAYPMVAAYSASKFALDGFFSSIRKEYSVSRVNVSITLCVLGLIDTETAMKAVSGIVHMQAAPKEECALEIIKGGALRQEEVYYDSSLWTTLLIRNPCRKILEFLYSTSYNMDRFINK

| Structure (SMILES) | IC50 |
| --- | --- |
| CN1CCN(CCc2ccc(C3C(C)(C)OC(N[C@@H](CCO)c4ccccc4F)=NS3(=O)=O)cc2)CC1 (stereo partly drawn) [Example 148, (S)-3-(6,6-Dimethyl-5-{4-[2-(4-methyl-piperazin-1-yl)-ethyl]-phenyl}-4,4-dioxo-5,6-dihydro-4H-4lambda6-[1,4,3]oxathiazin-2-ylamino)-3-(2-fluoro-phenyl)-propan-1-ol] | 144 nM |
| CC1(C)OC(N[C@@H](CCO)c2ccccc2F)=NS(=O)(=O)C1c1ccc(C2CCN(C(C)(C)C)CC2)cc1 (stereo partly drawn) [Example 151, (S)-3-{5-[4-(1-tert-Butyl-piperidin-4-yl)-phenyl]-6,6-dimethyl-4,4-dioxo-5,6-dihydro-4H-4lambda6-[1,4,3]oxathiazin-2-ylamino}-3-(2-fluorophenyl)-propan-1-ol] | 34 nM |
| CC1(C)OC(N[C@@H](CCO)c2ccccc2F)=NS(=O)(=O)C1c1ccc(C2CCN(C3CC3)CC2)cc1 (stereo partly drawn) [Example 152, (S)-3-{5-[4-(1-Cyclopropyl-piperidin-4-yl)-phenyl]-6,6-dimethyl-4,4-dioxo-5,6-dihydro-4H-4lamda6-[1,4,3]oxathiazin-2-ylamino}-3-(2-fluorophenyl)-propan-1-ol] | 26 nM |
| CC(C)(O)c1ccc(C2C(C)(C)OC(N[C@@H](CCO)c3ccccc3F)=NS2(=O)=O)cc1 (stereo partly drawn) [Example 153, (S)-3-(2-fluorophenyl)-3-{5-[4-(1-hydroxy-1-methyl-ethyl)-phenyl]-6,6-dimethyl-4,4-dioxo-5,6-dihydro-4H-4lambda6-[1,4,3]oxathiazin-2-ylamino}-propan-1-ol] | 48 nM |
| CN1CCN(c2ccc(-c3ccc(C4C(C)(C)OC(N[C@@H](CCO)c5ccccc5F)=NS4(=O)=O)cc3)nc2)CC1 (stereo partly drawn) [Example 154, (S)-3-(6,6-Dimethyl-5-{4-[5-(4-methyl-piperazin-1-yl)-pyridin-2-yl]-phenyl}-4,4-dioxo-5,6-dihydro-4H-4lambda6-[1,4,3]oxathiazin-2-ylamino)-3-(2-fluoro-phenyl)-propan-1-ol] | 13 nM |
| CC(=O)Oc1ccc(C2C(C)(C)OC(N[C@@H](CCO)c3ccccc3F)=NS2(=O)=O)cc1 (stereo partly drawn) [Example 155, Acetic acid 4-{2-[(S)-1-(2-fluorophenyl)-3-hydroxy-propylamino]-6,6-dimethyl-4,4-dioxo-5,6-dihydro-4H-4lambda6-[1,4,3]oxathiazin-5-yl}-phenyl ester] | 17 nM |
| C[C@H](NC1=NS(=O)(=O)C(c2ccc(-c3ccc(C(N)=O)cc3)cc2)C(C)(C)O1)c1ccccc1F (stereo partly drawn) [Example 157, 4′-{2-[(S)-1-(2-fluorophenyl)-ethylamino]-6,6-dimethyl-4,4-dioxo-5,6-dihydro-4H-4lambda6-[1,4,3]oxathiazin-5-yl}-biphenyl-4-carboxamide] | 20 nM |
| C[C@H](NC1=NS(=O)(=O)C(c2ccc(C3CCNCC3)cc2)C(C)(C)O1)c1ccccc1F (stereo partly drawn) [Example 158, [6,6-Dimethyl-4,4-dioxo-5-(4-piperidin-4-yl-phenyl)-5,6-dihydro-4H-4lambda6-[1,4,3]oxathiazin-2-yl]-[(S)-1-(2-fluorophenyl)-ethyl]-amin] | 38 nM |
| C[C@H](NC1=NS(=O)(=O)C(c2ccc(C3CCN(C)CC3)cc2)C(C)(C)O1)c1ccccc1F (stereo partly drawn) [Example 159, {6,6-Dimethyl-5-[4-(1-methyl-piperidin-4-yl)-phenyl]-4,4-dioxo-5,6-dihydro-4H-4lambda6-[1,4,3]oxathiazin-2-yl}-[(S)-1-(2-fluorophenyl)-ethyl]-amine] | 108 nM |
| C[C@H](NC1=NS(=O)(=O)C(c2ccc(C3CCN(CCO)CC3)cc2)C(C)(C)O1)c1ccccc1F (stereo partly drawn) [Example 160, 2-[4-(4-{2-[(S)-1-(2-fluorophenyl)-ethylamino]-6,6-dimethyl-4,4-dioxo-5,6-dihydro-4H-4lambda6-[1,4,3]oxathiazin-5-yl}-phenyl)-piperidin-1-yl]-ethanol] | 64 nM |
| C[C@H](NC1=NS(=O)(=O)C(c2ccc(C(C)(C)O)cc2)C(C)(C)O1)c1ccccc1F (stereo partly drawn) [Example 162, 2-(4-{2-[(S)-1-(2-fluorophenyl)-ethylamino]-6,6-dimethyl-4,4-dioxo-5,6-dihydro-4H-4lambda6-[1,4,3]oxathiazin-5-yl}-phenyl)-propan-2-ol] | 52 nM |
| CC(=O)c1ccc(C2C(C)(C)OC(N[C@@H](C)c3ccccc3F)=NS2(=O)=O)cc1 (stereo partly drawn) [Example 163, 1-(4-{2-[(S)-1-(2-fluorophenyl)-ethylamino]-6,6-dimethyl-4,4-dioxo-5,6-dihydro-4H-4lambda6-[1,4,3]oxathiazin-5-yl}-phenyl)-ethanone] | 15 nM |
| C[C@H](NC1=NS(=O)(=O)C(c2ccc(-c3ccccc3)nc2)C(C)(C)O1)c1ccccc1F (stereo partly drawn) [Example 164, [6,6-Dimethyl-4,4-dioxo-5-(6-phenyl-pyridin-3-yl)-5,6-dihydro-4H-4lambda6-[1,4,3]oxathiazin-2-yl]-[(S)-1-(2-fluorophenyl)-ethyl]-amine] | 27 nM |
| C[C@H](NC1=NS(=O)(=O)C(c2ccc(N3CCNCC3)cc2)C(C)(C)O1)c1ccccc1F (stereo partly drawn) [Example 167, [6,6-Dimethyl-4,4-dioxo-5-(4-piperazin-1-yl-phenyl)-5,6-dihydro-4H-4lambda6-[1,4,3]oxathiazin-2-yl]-[(S)-1-(2-fluorophenyl)-ethyl]-amine] | 122 nM |
| C[C@H](NC1=NS(=O)(=O)C(c2cccnc2)C(C)(C)O1)c1ccccc1F (stereo partly drawn) [Example 168, (6,6-Dimethyl-4,4-dioxo-5-pyridin-3-yl-5,6-dihydro-4H-4lambda6-[1,4,3]oxathiazin-2-yl)-[(S)-1-(2-fluorophenyl)-ethyl]-amine] | 21 nM |
| C[C@H](NC1=NS(=O)(=O)C(c2ccc(N3CCN(C)CC3)cc2)C(C)(C)O1)c1ccccc1F (stereo partly drawn) [Example 170, {6,6-Dimethyl-5-[4-(4-methyl-piperazin-1-yl)-phenyl]-4,4-dioxo-5,6-dihydro-4H-4lambda6-[1,4,3]oxathiazin-2-yl}-[(S)-1-(2-fluorophenyl)-ethyl]-amine] | 246 nM |

Compounds with a lower IC50, results first:

| IC50 | Structure (SMILES) |
| --- | --- |
| 5 nM | CN1CCN(c2ccc(-c3ccc(C4C(C)(C)OC(N[C@@H](CCO)c5ccccc5F)=NS4(=O)=O)cc3)cn2)CC1 (stereo partly drawn) [Example 145, (S)-3-(6,6-Dimethyl-5-{4-[6-(4-methyl-piperazin-1-yl)-pyridin-3-yl]-phenyl}-4,4-dioxo-5,6-dihydro-4H-4lambda6-[1,4,3]oxathiazin-2-ylamino)-3-(2-fluoro-phenyl)-propan-1-ol] |
| 8 nM | CC1(C)OC(N[C@@H](CCO)c2ccccc2F)=NS(=O)(=O)[C@H]1c1ccc(-c2ccc(C(N)=O)cc2)cc1 [Example 146, 4′-{(S)-2-[(S)-1-(2-fluorophenyl)-3-hydroxy-propylamino]-6,6-dimethyl-4,4-dioxo-5,6-dihydro-4H-4lambda6-[1,4,3]oxathiazin-5-yl}-biphenyl-4-carboxamide] |
| 9 nM | CC1(C)OC(N[C@@H](CCO)c2ccccc2F)=NS(=O)(=O)[C@@H]1c1ccc(-c2ccc(C(N)=O)cc2)cc1 [Example 147, 4′-{(R)-2-[(S)-1-(2-fluorophenyl)-3-hydroxy-propylamino]-6,6-dimethyl-4,4-dioxo-5,6-dihydro-4H-4lambda6-[1,4,3]oxathiazin-5-yl}-biphenyl-4-carboxamide] |
| 4 nM | CC1(C)OC(N[C@@H](CCO)c2ccccc2F)=NS(=O)(=O)[C@H]1c1ccc(-c2cccc(C(N)=O)c2)cc1 [Example 149, 4′-{(S)-2-[(S)-1-(2-fluorophenyl)-3-hydroxy-propylamino]-6,6-dimethyl-4,4-dioxo-5,6-dihydro-4H-4lambda6-[1,4,3]oxathiazin-5-yl}-biphenyl-3-carboxamide] |
| 3 nM | CC1(C)OC(N[C@@H](CCO)c2ccccc2F)=NS(=O)(=O)[C@@H]1c1ccc(-c2cccc(C(N)=O)c2)cc1 [Example 150, 4′-{(R)-2-[(S)-1-(2-fluorophenyl)-3-hydroxy-propylamino]-6,6-dimethyl-4,4-dioxo-5,6-dihydro-4H-4lambda6-[1,4,3]oxathiazin-5-yl}-biphenyl-3-carboxamide] |
| 12 nM | C[C@H](NC1=NS(=O)(=O)C(c2ccc(-c3cccc(C(N)=O)c3)cc2)C(C)(C)O1)c1ccccc1F (stereo partly drawn) [Example 156, 4′-{2-[(S)-1-(2-fluorophenyl)-ethylamino]-6,6-dimethyl-4,4-dioxo-5,6-dihydro-4H-4lambda6-[1,4,3]oxathiazin-5-yl}-biphenyl-3-carboxamide] |
| 11 nM | CC1(C)OC(N[C@@H](CCO)c2ccccc2F)=NS(=O)(=O)C1c1cccnc1 (stereo partly drawn) [Example 161, (S)-3-(6,6-Dimethyl-4,4-dioxo-5-pyridin-3-yl-5,6-dihydro-4H-4lambda6-[1,4,3]oxathiazin-2-ylamino)-3-(2-fluorophenyl)-propan-1-ol] |
| 7 nM | CC1(C)OC(N[C@@H](CCO)c2ccccc2F)=NS(=O)(=O)C1c1ccc(-c2ccccc2)nc1 (stereo partly drawn) [Example 165, (S)-3-[6,6-Dimethyl-4,4-dioxo-5-(6-phenyl-pyridin-3-yl)-5,6-dihydro-4H-4lambda6-[1,4,3]oxathiazin-2-ylamino]-3-(2-fluorophenyl)-propan-1-ol] |
| 4 nM | C[C@H](NC1=NS(=O)(=O)C(c2ccc(-c3cnc(N4CCNCC4)nc3)cc2)C(C)(C)O1)c1ccccc1F (stereo partly drawn) [Example 166, {6,6-Dimethyl-4,4-dioxo-5-[4-(2-piperazin-1-yl-pyrimidin-5-yl)-phenyl]-5,6-dihydro-4H-4lambda6-[1,4,3]oxathiazin-2-yl}-[(S)-1-(2-fluorophenyl)-ethyl]-amine] |
| 2 nM | CC1(C)OC(N[C@@H](CCO)c2ccccc2F)=NS(=O)(=O)C1c1ccc(-c2cnc(N3CCNCC3)nc2)cc1 (stereo partly drawn) [Example 169, (S)-3-{6,6-Dimethyl-4,4-dioxo-5-[4-(2-piperazin-1-yl-pyrimidin-5-yl)-phenyl]-5,6-dihydro-4H-4lambda6-[1,4,3]oxathiazin-2-ylamino}-3-(2-fluoro-phenyl)-propan-1-ol] |

Reference: patent US8895547B2, “Substituted phenyl-oxathiazine derivatives, method for producing them, drugs containing said compounds and the use thereof” (Sanofi, priority 2011, dated 2014)
